{"source": "ChEMBL document CHEMBL1156236", "about": "“Trypanoside, anti-tuberculosis, leishmanicidal, and cytotoxic activities of tetrahydrobenzothienopyrimidines” (Bioorg Med Chem, 2010)", "key": {"HT-29": {"test_system": "HT-29", "assay": "Cytotoxicity against human HT-29 cells", "format": "functional"}, "NCI-H226": {"test_system": "NCI-H226", "assay": "Cytotoxicity against human NCI-H226 cells", "format": "functional"}, "786-0": {"test_system": "786-0", "assay": "Cytotoxicity against human 786-0 cells", "format": "functional"}, "HOP-92": {"test_system": "HOP-92", "assay": "Cytotoxicity against human HOP92 cells", "format": "functional"}, "OVCAR-8": {"test_system": "OVCAR-8", "assay": "Cytotoxicity against human OVCAR8 cells", "format": "functional"}, "SK-MEL-5": {"test_system": "SK-MEL-5", "assay": "Cytotoxicity against human SK-MEL-5 cells", "format": "functional"}, "Leishmania amazonensis": {"test_system": "Leishmania amazonensis", "assay": "Antileishmanial activity against Leishmania amazonensis MHOM/BR/76/LTB-012 amastigotes infected BALB/c mouse macrophages after 48 hrs by MTT assay", "format": "functional, organism-based", "conditions": "MHOM/BR/76/LTB-012, 48 h"}, "HOP-62": {"test_system": "HOP-62", "assay": "Cytotoxicity against human HOP62 cells", "format": "functional"}, "NCI-H322M": {"test_system": "NCI-H322M", "assay": "Cytotoxicity against human NCI-H322M cells", "format": "functional"}, "M14": {"test_system": "M14", "assay": "Cytotoxicity against human M14 cells", "format": "functional"}, "K562": {"test_system": "K562", "assay": "Cytotoxicity against human K562 cells", "format": "functional"}, "SK-MEL-28": {"test_system": "SK-MEL-28", "assay": "Cytotoxicity against human SK-MEL-28 cells", "format": "functional"}, "MDA-MB-435": {"test_system": "MDA-MB-435", "assay": "Cytotoxicity against human MDA-MB-435 cells", "format": "functional"}, "[1]": {"assay": "Selectivity index, ratio of IC50 for african green monkey Vero cells to MIC for Mycobacterium tuberculosis H37Rv ATCC 27294 by microplate alamar blue assay", "format": "functional"}, "[2]": {"assay": "Selectivity index, ratio of IC50 for BALB/c mouse macrophages to IC50 for Leishmania amazonensis MHOM/BR/76/LTB-012"}, "Malme-3M": {"test_system": "Malme-3M", "assay": "Cytotoxicity against human MALME-3M cells", "format": "functional"}, "SW-620": {"test_system": "SW-620", "assay": "Cytotoxicity against human SW620 cells", "format": "functional"}, "ACHN": {"test_system": "ACHN", "assay": "Cytotoxicity against human ACHN cells", "format": "functional"}, "NCI/ADR-RES": {"test_system": "NCI/ADR-RES", "assay": "Cytotoxicity against human NCI/ADR-RES cells", "format": "functional"}, "A498": {"test_system": "A498", "assay": "Cytotoxicity against human A498 cells", "format": "functional"}, "NCI-H23": {"test_system": "NCI-H23", "assay": "Cytotoxicity against human NCI-H23 cells", "format": "functional"}, "DU-145": {"test_system": "DU-145", "assay": "Cytotoxicity against human DU145 cells", "format": "functional"}, "Leishmania peruviana": {"test_system": "Leishmania peruviana", "assay": "Antileishmanial activity against Leishmania peruviana MHOM/PE/LCA08 promastigote infected BALB/c mouse macrophages after 48 hrs by Giemsa staining method", "format": "functional, organism-based", "conditions": "MHOM/PE/LCA08, 48 h"}, "MDA-MB-468": {"test_system": "MDA-MB-468", "assay": "Cytotoxicity against human MDA-MB-468 cells", "format": "functional"}, "UACC-62": {"test_system": "UACC-62", "assay": "Cytotoxicity against human UACC62 cells", "format": "functional"}, "[3]": {"conditions": "read-out: LC50 (the source's name)"}}}
{"smiles": "C(=N\\Nc1ncnc2sc3c(c12)CCCC3)/c1ccccn1", "values": [{"measurement": "GI50", "setting": "HT-29", "result": 0.1, "unit": "µM"}, {"measurement": "LC50 (lethal concentration, 50% cell kill)", "setting": "HT-29", "result": 44.9, "unit": "µM"}, {"measurement": "TGI", "setting": "HT-29", "result": 15.1, "unit": "µM"}, {"measurement": "GI50", "setting": "NCI-H226", "result": 0.385, "unit": "µM"}, {"measurement": "TGI", "setting": "NCI-H226", "result": 16.2, "unit": "µM"}, {"measurement": "CC50", "setting": "NCI-H226; [3]", "result": "> 100", "unit": "µM"}, {"measurement": "GI50", "setting": "786-0", "result": 0.333, "unit": "µM"}, {"measurement": "TGI", "setting": "786-0", "result": 0.947, "unit": "µM"}, {"measurement": "CC50", "setting": "786-0; [3]", "result": 44.4, "unit": "µM"}, {"measurement": "GI50", "setting": "HOP-92", "result": 0.417, "unit": "µM"}, {"measurement": "TGI", "setting": "HOP-92", "result": 31, "unit": "µM"}, {"measurement": "CC50", "setting": "HOP-92; [3]", "result": "> 100", "unit": "µM"}, {"measurement": "GI50", "setting": "OVCAR-8", "result": 0.481, "unit": "µM"}, {"measurement": "TGI", "setting": "OVCAR-8", "result": "> 1", "unit": "µM"}, {"measurement": "CC50", "setting": "OVCAR-8; [3]", "result": "> 0.1", "unit": "µM"}, {"measurement": "GI50", "setting": "SK-MEL-5", "result": 0.332, "unit": "µM"}, {"measurement": "TGI", "setting": "SK-MEL-5", "result": 1.72, "unit": "µM"}, {"measurement": "CC50", "setting": "SK-MEL-5; [3]", "result": 23.6, "unit": "µM"}, {"measurement": "IC50", "setting": "Leishmania amazonensis", "result": 0.5, "unit": "µM"}, {"measurement": "GI50", "setting": "HOP-62", "result": 0.395, "unit": "µM"}, {"measurement": "TGI", "setting": "HOP-62", "result": 17.7, "unit": "µM"}, {"measurement": "CC50", "setting": "HOP-62; [3]", "result": "> 100", "unit": "µM"}, {"measurement": "GI50", "setting": "NCI-H322M", "result": 0.216, "unit": "µM"}, {"measurement": "TGI", "setting": "NCI-H322M", "result": 35, "unit": "µM"}, {"measurement": "CC50", "setting": "NCI-H322M; [3]", "result": "> 100", "unit": "µM"}, {"measurement": "GI50", "setting": "M14", "result": 0.25, "unit": "µM"}, {"measurement": "TGI", "setting": "M14", "result": 0.599, "unit": "µM"}, {"measurement": "CC50", "setting": "M14; [3]", "result": 33.4, "unit": "µM"}, {"measurement": "GI50", "setting": "K562", "result": 0.16, "unit": "µM"}, {"measurement": "TGI", "setting": "K562", "result": 10.8, "unit": "µM"}, {"measurement": "CC50", "setting": "K562; [3]", "result": "> 100", "unit": "µM"}, {"measurement": "GI50", "setting": "SK-MEL-28", "result": 0.422, "unit": "µM"}, {"measurement": "TGI", "setting": "SK-MEL-28", "result": 16.7, "unit": "µM"}, {"measurement": "CC50", "setting": "SK-MEL-28; [3]", "result": 54.6, "unit": "µM"}, {"measurement": "GI50", "setting": "MDA-MB-435", "result": 0.477, "unit": "µM"}, {"measurement": "TGI", "setting": "MDA-MB-435", "result": 25.1, "unit": "µM"}, {"measurement": "CC50", "setting": "MDA-MB-435; [3]", "result": "> 100", "unit": "µM"}, {"measurement": "Ratio IC50", "setting": "[1]", "result": 0.2}, {"measurement": "Ratio IC50", "setting": "[2]", "result": 13}, {"measurement": "GI50", "setting": "Malme-3M", "result": 0.275, "unit": "µM"}, {"measurement": "TGI", "setting": "Malme-3M", "result": 10.3, "unit": "µM"}, {"measurement": "CC50", "setting": "Malme-3M; [3]", "result": 51.4, "unit": "µM"}, {"measurement": "GI50", "setting": "SW-620", "result": 0.561, "unit": "µM"}, {"measurement": "TGI", "setting": "SW-620", "result": 17.9, "unit": "µM"}, {"measurement": "CC50", "setting": "SW-620; [3]", "result": 59.5, "unit": "µM"}, {"measurement": "GI50", "setting": "ACHN", "result": 0.313, "unit": "µM"}, {"measurement": "TGI", "setting": "ACHN", "result": 11, "unit": "µM"}, {"measurement": "CC50", "setting": "ACHN; [3]", "result": "> 100", "unit": "µM"}, {"measurement": "GI50", "setting": "NCI/ADR-RES", "result": 0.427, "unit": "µM"}, {"measurement": "TGI", "setting": "NCI/ADR-RES", "result": 58.1, "unit": "µM"}, {"measurement": "CC50", "setting": "NCI/ADR-RES; [3]", "result": "> 0.1", "unit": "µM"}, {"measurement": "GI50", "setting": "A498", "result": 0.428, "unit": "µM"}, {"measurement": "TGI", "setting": "A498", "result": 8.81, "unit": "µM"}, {"measurement": "CC50", "setting": "A498; [3]", "result": 37.2, "unit": "µM"}, {"measurement": "GI50", "setting": "NCI-H23", "result": 0.705, "unit": "µM"}, {"measurement": "TGI", "setting": "NCI-H23", "result": 34.3, "unit": "µM"}, {"measurement": "CC50", "setting": "NCI-H23; [3]", "result": "> 100", "unit": "µM"}, {"measurement": "GI50", "setting": "DU-145", "result": 0.37, "unit": "µM"}, {"measurement": "LC50", "setting": "DU-145", "result": 51.6, "unit": "µM"}, {"measurement": "TGI", "setting": "DU-145", "result": 15.1, "unit": "µM"}, {"measurement": "IC50", "setting": "Leishmania peruviana", "result": 0.7, "unit": "µM"}, {"measurement": "GI50", "setting": "MDA-MB-468", "result": 0.2, "unit": "µM"}, {"measurement": "TGI", "setting": "MDA-MB-468", "result": 0.505, "unit": "µM"}, {"measurement": "CC50", "setting": "MDA-MB-468; [3]", "result": 41, "unit": "µM"}, {"measurement": "GI50", "setting": "UACC-62", "result": 0.379, "unit": "µM"}, {"measurement": "TGI", "setting": "UACC-62", "result": 6.54, "unit": "µM"}, {"measurement": "CC50", "setting": "UACC-62; [3]", "result": 48.4, "unit": "µM"}]}
